# Experimental data from patent US20240325396A1, “METHODS FOR TREATING CANCER” (Allarity Therapeutics, Inc., priority 2023, published 2024).
# Read-outs that look alike come from different tables or passages of the source.
# Key:
# [1] = cited from earlier work
# [2] = Phase 1 study, pharmacokinetics in plasma and urine; type: in vivo, human
# Source text: Food intake vs fasting comparisons were made after administration of the Cycle 1 Day 7 dose (FIG. 2A) and after the Cycle 1 Day 15 dose (FIG. 2B).
# advanced ovarian cancer = test: Phase 2 advanced ovarian cancer study QD vs BID, tumor response (RECIST 1.1), PFS; type: in vivo, human
# Source text: Patient population: Histologically or cytologically documented epithelial ovarian carcinoma including high-grade serous, endometrioid, clear cell, carcinosarcoma, undifferentiated, and mixed histological subtypes (independent of BRCA1 and homologous recombination (HR) deficiency (HRD) status) and with 2 or more previous chemotherapies/antibody therapies including treatment with other PARPi for advanced, refractory, or recurrent ovarian cancer.
# The Interim Analysis Population (IAP) and safety population consisted of 28 patients (10 BID and 18 QD). Five patients received a first dose but dropped out before any tumor evaluation.
# FIG. 4A and FIG. 4B show the best change in tumor diameter from baseline in the IAP QD population (FIG. 4A) and the IAP BID population (FIG. 4B). The mean of best change in tumor diameter from baseline in the QD population (FIG. 4A) was 4% tumor growth. The CR in the BID pollution (FIG. 4B) was unconfirmed, and consisted of target lymph node lesions that all turned normal. This CR patient also had CA125 CR unconfirmed status. The mean of best change in tumor diameter from baseline in the BID population (FIG. 4B) was 29% tumor reduction. The median PFS was not reached in the BID population, and was 50 days (1.6 months) in the QD population.
# [3] = test system: SR human B cell lymphoma cell line; test: Cell proliferation assay, SR; conditions: 192 h, read-out: IC50, inhibition of cell proliferation
# [4] = test system: PARP activity (PAR levels); test: Phase 1 study, PARP inhibition by change in PAR levels; type: in vivo, human
# CA125 = test: Phase 2 advanced ovarian cancer study, CA125 test response (GCIG); type: in vivo, human
# Protocol: Only patients with a baseline of CA125 twice the upper normal limit of 70 unit/ml who received at least one dose were included in IAP. Only patients who had completed 2 cycles were determined to be evaluable for CA125 response. Two QD patients and four BID patients were below 70 units/ml. The CA125 test was confirmed with a second measurement that was lower than or within 10% of the previous measurement.
# breast cancer = test: Phase 2 breast cancer study, response; type: in vivo, human; conditions: twelve subjects evaluable for response
# Source text: A breast cancer study was initiated in June 2018 and discontinued for futility after enrollment of 16 subjects. Twelve subjects were evaluable for response: Nine had PD and three subjects had SD.
# [5] = Myelotoxicity, ovarian cancer patients pooled with 14 metastatic breast cancer patients; type: in vivo, human; conditions: BID + QD (N = 42)
# Protocol: Because myelotoxicity appeared to be a rare event for 2×-121, 14 patients with metastatic breast cancer that received 600 mg QD in a phase II trial were included in Table 10.
# [6] = test system: BRCA1 mutant human triple negative breast cancer cell line MDA-MB-436; test: Cell proliferation assay, MDA-MB-436; conditions: MDA-MB-436, 192 h, read-out: IC50, inhibition of cell proliferation
# P-gp = test: in vitro; conditions: mouse
# [7] = Phase 2 advanced ovarian cancer study, adverse events and dose modifications; type: in vivo, human
# [8] = published Phase I trial (Plummer, Br J Cancer 2020); cited from earlier work
# Advanced Solid Tumors = test: Phase 1 study E7449-E044-101, tumor response (RECIST 1.1); type: in vivo, human
# Protocol: The overall objective response rate (ORR; CR+PR) was 4.9% (n=2) with 1 subject each in the 600 mg (MTD) and 800 mg dose groups with a BOR of PR.
# [9] = test system: human acute myeloid leukemia MV-4-11-luc2/AcGFP cell line; test: Cell proliferation assay, MV-4-11-luc2/AcGFP; conditions: 144 h, read-out: IC50, inhibition of cell proliferation
# [10] = Safety: Phase 1 study with preliminary Phase 2 metastatic breast cancer data; type: in vivo
# Protocol: Phototoxicity was in the Danish study primarily seen in 2 subjects treated during the hot summer period in 2018.
# Anemia was registered in only few subjects at doses of 400 mg and above 3/42 (7%) (all grade 2) and 4/42 had increased liver enzymes (grade 2: 1/42 (2.6%) and grade 3: 3/42 (7%)).
# Gastrointestinal side-effects were registered in some subjects: nausea 14/42 (33%), vomiting 7/42 (16%) and diarrhea 13/42 ([…]) all grade 1-2 apart from two cases of grade 3 diarrhea.
# [11] = test system: BRCA1 mutant MDA-MB-436 human breast cancer subcutaneous xenograft; test: MDA-MB-436 subcutaneous xenograft model, anti-tumor activity; type: in vivo; conditions: 30 and 100 mg/kg
# [12] = test system: human acute myeloid leukemia (AML) MV-4-11-luc2/AcGFP; test: AML MV-4-11-luc2/AcGFP survival model; type: in vivo
compound,measurement,setting,value
NC(=O)c1cccc2cn(-c3ccc([C@@H]4CCCNC4)cc3)nc12 [niraparib],Adverse events Grade 5,"[1]; 300 mg QD (N = 463), QUADRA trial",2%
same,Dose modifications: Discontinuation,[1]; 300 mg QD (N = 463),21%
same,Dose modifications: Interruption,[1]; 300 mg QD (N = 463),62%
same,Dose modifications: Reduction,[1]; 300 mg QD (N = 463),47%
same,Treatment-related adverse events Grade 1,[1]; 300 mg QD (N = 463),90%
same,Treatment-related adverse events Grade 2,[1]; 300 mg QD (N = 463),56%
same,Treatment-related adverse events Grade 3,[1]; 300 mg QD (N = 463),20%
same,Treatment-related adverse events Grade 4,[1]; 300 mg QD (N = 463),<1%
same,Anemia Grade 1-4,[1]; QD (N = 463),51%
same,Anemia Grade 3-4,[1]; QD (N = 463),27%
same,Neutropenia Grade 1-4,[1]; QD (N = 463),20%
same,Neutropenia Grade 3-4,[1]; QD (N = 463),13%
same,Thrombocytopenia Grade 1-4,[1]; QD (N = 463),52%
same,Thrombocytopenia Grade 3-4,[1]; QD (N = 463),28%
"O=c1[nH]nc2c3c(cccc13)N=C(CN1Cc3ccccc3C1)N2 [stenoparib, 8-(isoindolin-2-ylmethyl)-2,9-dihydro-3H-pyridazino [3,4,5-de] quinazolin-3-one]",increase of AUC by food,"[2]; 600 mg dose, plasma",10%
same,reduction of Cmax by food,"[2]; 600 mg dose, plasma",60%
same,accumulation based on AUC,[2]; Day -2 vs Day 15 administration,minimal accumulation
same,Tmax,"[2]; human, plasma, across subjects and dose groups, oral",0.5 to 4 h
same,administered dose recovered in urine,[2]; in vivo,less than 1.5%
same,half-life,"[2]; plasma, human subjects, oral, read-out: elimination half-life (converted)",~8 h
same,dose proportionality of absorption in plasma,[2]; single or multiple oral doses between 50 mg and 800 mg,proportional absorption
same,"Tumor response CR, patients n (%)","advanced ovarian cancer; 600 mg QD, N = 18 IAP",0 (0%)
same,"Tumor response PD, patients n (%)","advanced ovarian cancer; 600 mg QD, N = 18 IAP",9 (50%)
same,"Tumor response PR, patients n (%)","advanced ovarian cancer; 600 mg QD, N = 18 IAP",0 (0%)
same,"Tumor response SD > 16w, patients n (%)","advanced ovarian cancer; 600 mg QD, N = 18 IAP",1 (6%)
same,"Tumor response SD, patients n (%)","advanced ovarian cancer; 600 mg QD, N = 18 IAP",3 (17%)
same,"Tumor response CR, patients n (%)","advanced ovarian cancer; BID 200 mg morning + 400 mg evening, N = 10 IAP, unconfirmed",1 (10%) unconfirmed
same,"mean of best change in tumor diameter from baseline, tumor reduction",advanced ovarian cancer; BID population,29%
same,median PFS,advanced ovarian cancer; BID population,not reached
same,"Tumor response PD, patients n (%)","advanced ovarian cancer; BID, N = 10 IAP",0 (0%)
same,"Tumor response PR, patients n (%)","advanced ovarian cancer; BID, N = 10 IAP",0 (0%)
same,"Tumor response SD > 16w, patients n (%)","advanced ovarian cancer; BID, N = 10 IAP",1 (10%)
same,"Tumor response SD, patients n (%)","advanced ovarian cancer; BID, N = 10 IAP",3 (30%)
same,"mean of best change in tumor diameter from baseline, tumor growth",advanced ovarian cancer; QD population,4%
same,IC50,[3],1060 nM
same,inhibition in PAR levels from baseline,"[4]; 600 mg (MTD), food effect cohort, 2 to 4 hours post-dose",up to 90%
same,decrease in PAR levels,[4]; 24 hours post-dose,≥ 70%
same,"CA125 response PR, patients n (%)","CA125; BID, N = 6 IAP",0 (0%)
same,"CA125 response SD, patients n (%)","CA125; BID, N = 6 IAP",1 (17%)
same,"CA125 response CR, patients n (%)","CA125; BID, N = 6 IAP, unconfirmed",1 (17%) unconfirmed
same,"CA125 response CR, patients n (%)","CA125; QD, N = 16 IAP",0 (0%)
same,"CA125 response PR, patients n (%)","CA125; QD, N = 16 IAP",0 (0%)
same,"CA125 response SD, patients n (%)","CA125; QD, N = 16 IAP",3 (19%)
same,subjects with PD,breast cancer,Nine
same,subjects with SD,breast cancer,three
same,PARP activity in tumor tissue,"PARP activity; single dose 30 mg/kg, 12 hours post-dose",low levels of PARP activity were observed
same,PARP activity in tumor tissue,"PARP activity; single dose 30 or 100 mg/kg, 1 and 6 hours post-dose",completely inhibited
same,PARP activity in tumor tissue,"PARP activity; single dose 30 or 100 mg/kg, 24 hours post-dose",restored to control levels
same,Anemia Grade 1-4,[5],21%
same,Anemia Grade 3-4,[5],7%
same,Neutropenia Grade 1-4,[5],2%
same,Neutropenia Grade 3-4,[5],0%
same,Thrombocytopenia Grade 1-4,[5],0%
same,Thrombocytopenia Grade 3-4,[5],0%
same,IC50,[6],219 nM
same,IC50,P-gp,1390 nM
same,IC50,P-gp; with verapamil (P-gp antagonist; concentration not stated),1820 nM
same,Dose modifications: Discontinuation,[7]; 600 mg BID (N = 9),0%
same,Dose modifications: Interruption,[7]; 600 mg BID (N = 9),50%
same,Dose modifications: Reduction,[7]; 600 mg BID (N = 9),40%
same,Adverse events Grade 1-4,[7]; 600 mg BID (N = 10),70%
same,Adverse events Grade 3-4,[7]; 600 mg BID (N = 10),20%
same,Adverse events Grade 5,[7]; 600 mg BID (N = 10),0%
same,Treatment-related adverse events Grade 1,[7]; 600 mg BID (N = 10),70%
same,Treatment-related adverse events Grade 2,[7]; 600 mg BID (N = 10),60%
same,Treatment-related adverse events Grade 3,[7]; 600 mg BID (N = 10),20%
same,Treatment-related adverse events Grade 4,[7]; 600 mg BID (N = 10),0%
same,Treatment-related adverse events Grade 5,[7]; 600 mg BID (N = 10),0%
same,Adverse events Grade 1-4,[7]; 600 mg QD (N = 18),100%
same,Adverse events Grade 3-4,[7]; 600 mg QD (N = 18),61%
same,Adverse events Grade 5,[7]; 600 mg QD (N = 18),6%
same,Dose modifications: Discontinuation,[7]; 600 mg QD (N = 18),11%
same,Dose modifications: Interruption,[7]; 600 mg QD (N = 18),83%
same,Dose modifications: Reduction,[7]; 600 mg QD (N = 18),28%
same,Treatment-related adverse events Grade 1,[7]; 600 mg QD (N = 18),94%
same,Treatment-related adverse events Grade 2,[7]; 600 mg QD (N = 18),83%
same,Treatment-related adverse events Grade 3,[7]; 600 mg QD (N = 18),33%
same,Treatment-related adverse events Grade 4,[7]; 600 mg QD (N = 18),0%
same,Treatment-related adverse events Grade 5,[7]; 600 mg QD (N = 18),0%
same,myelotoxicity among adverse events,[8],no myelotoxicity among adverse events found in more than 5% of patients
same,BOR of stable disease,Advanced Solid Tumors; 13 subjects,31.7%
same,subjects with best overall response (BOR) of CR,"Advanced Solid Tumors; 35 subjects assessed, investigator assessment, once daily dosing",None
same,overall objective response rate (ORR; CR+PR),"Advanced Solid Tumors; n=2, one PR each at 600 mg and 800 mg",4.9%
same,IC50,[9],1100 nM
same,MTD,"[10]; administered orally once daily, phase I study",600 mg
same,diarrhea,"[10]; human, in vivo",25%
same,nausea,"[10]; human, in vivo",33%
same,vomiting,"[10]; human, in vivo",16%
same,DLT,[10]; in vivo,limited to fatigue and one case of anaphylactic reaction
same,cases of grade 3 diarrhea,[10]; in vivo,two
same,hematotoxicity or hepatotoxicity,[10]; in vivo,no significant hematotoxicity or hepatotoxicity was observed
same,"tolerability, body weight loss",[11]; 28 days,no significant body weight loss
same,tumor growth inhibition,[11]; consecutive 28-day administration,statistically significant tumor growth inhibition
same,disease burden as measured by luciferase signal,[12]; 100 mg/kg,Reduced disease burden
same,survival benefit,[12]; 100 mg/kg for 28 days,statistically significant survival benefit
same,"tolerability, body weight loss","[12]; 10, 30 or 100 mg/kg",well-tolerated without any significant body weight loss
same,disease burden by luciferase signal and survival benefit,[12]; 10 and 30 mg/kg,No statistically significant reduction in disease burden by luciferase signal or survival benefit
